Experimental data published in patent US20120270237A9, “METHODS FOR THE IDENTIFICATION OF KINASE INTERACTING MOLECULES AND FOR THE PURIFICATION OF KINASE PROTEINS” (Cellzone AG, priority 2009, published 2012).

What was measured:
Experiment in all cases: Kinobeads competition binding, L-363 cell lysate
Conditions in all cases: 10 μM free compound, L-363 lysate
NEK9 = target: T1, NEK9 (Homo sapiens, UniProt Q8TD19); design: endogenous in cells; host or cells: L-363 (MG132-treated)
T1 sequence (Q8TD19 1-979): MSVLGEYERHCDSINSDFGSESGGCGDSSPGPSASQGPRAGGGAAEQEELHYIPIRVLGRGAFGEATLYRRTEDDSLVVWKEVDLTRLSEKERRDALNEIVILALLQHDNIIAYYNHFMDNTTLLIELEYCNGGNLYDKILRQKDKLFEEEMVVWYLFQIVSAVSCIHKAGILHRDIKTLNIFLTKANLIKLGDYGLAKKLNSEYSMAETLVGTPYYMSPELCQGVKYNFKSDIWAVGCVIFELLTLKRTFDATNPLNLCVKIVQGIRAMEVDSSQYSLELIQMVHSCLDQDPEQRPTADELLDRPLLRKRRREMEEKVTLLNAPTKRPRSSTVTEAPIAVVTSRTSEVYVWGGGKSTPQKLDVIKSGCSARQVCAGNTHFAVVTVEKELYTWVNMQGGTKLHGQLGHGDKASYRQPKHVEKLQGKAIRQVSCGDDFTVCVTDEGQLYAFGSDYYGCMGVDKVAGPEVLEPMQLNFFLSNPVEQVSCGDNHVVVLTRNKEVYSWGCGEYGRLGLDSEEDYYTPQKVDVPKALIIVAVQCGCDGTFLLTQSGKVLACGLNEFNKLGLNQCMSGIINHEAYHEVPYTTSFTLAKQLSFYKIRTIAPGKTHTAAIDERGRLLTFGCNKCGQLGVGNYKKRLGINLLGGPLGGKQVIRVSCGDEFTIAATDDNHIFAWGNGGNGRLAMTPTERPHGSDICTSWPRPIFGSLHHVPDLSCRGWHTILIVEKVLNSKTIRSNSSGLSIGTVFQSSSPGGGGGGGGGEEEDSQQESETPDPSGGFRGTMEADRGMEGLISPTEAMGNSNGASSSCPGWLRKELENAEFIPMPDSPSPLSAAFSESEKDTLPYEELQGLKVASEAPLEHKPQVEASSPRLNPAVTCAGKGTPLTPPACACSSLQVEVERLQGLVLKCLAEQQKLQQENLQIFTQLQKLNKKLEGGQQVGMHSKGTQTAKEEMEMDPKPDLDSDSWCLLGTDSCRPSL
Protocol: (§1) To one aliquot of cell lysate 10 μM of the free compound (FIG. 3, CZC31326) was added and allowed to bind to proteins in the lysate. Then the affinity matrix with the immobilized compound was added to capture proteins that were not interacting with the previously added free compound. Beads were separated from the lysate and bead bound proteins were eluted in SDS sample buffer and subsequently separated by SDS-Polyacrylamide gel electrophoresis (FIG. 8). Suitable gel bands were cut out and subjected to in-gel proteolytic digestion with trypsin. The second lysate aliquot was processed identically, however no free compound was added (DMSO solvent control). Peptides originating from samples 1 and 2 were labeled with iTRAQ reagents (iTRAQ 114 and iTRAQ 117) and the combined samples were analyzed with a nano-flow liquid chromatography system coupled online to a tandem mass spectrometer (LC-MS/MS) experiment followed by iTRAQ reporter ion quantification in the MS/MS spectra as described in Example 2.
(§2) For this experiment the human plasma cell leukaemia line L-363 was used (German Collection of Microorganisms and Cell Cultures, DSMZ number ACC49, Braunschweig, Germany). Cells were treated for three hours with 20 μM of the proteasome inhibitor MG132 (Z-Leu-Leu-Leu-al, Sigma C2211) prior to cell harvesting.

NEK3 = target: T2, NEK3 (Homo sapiens, UniProt P51956); design: endogenous in cells; host or cells: L-363 (MG132-treated)
T2 sequence (P51956 1-506): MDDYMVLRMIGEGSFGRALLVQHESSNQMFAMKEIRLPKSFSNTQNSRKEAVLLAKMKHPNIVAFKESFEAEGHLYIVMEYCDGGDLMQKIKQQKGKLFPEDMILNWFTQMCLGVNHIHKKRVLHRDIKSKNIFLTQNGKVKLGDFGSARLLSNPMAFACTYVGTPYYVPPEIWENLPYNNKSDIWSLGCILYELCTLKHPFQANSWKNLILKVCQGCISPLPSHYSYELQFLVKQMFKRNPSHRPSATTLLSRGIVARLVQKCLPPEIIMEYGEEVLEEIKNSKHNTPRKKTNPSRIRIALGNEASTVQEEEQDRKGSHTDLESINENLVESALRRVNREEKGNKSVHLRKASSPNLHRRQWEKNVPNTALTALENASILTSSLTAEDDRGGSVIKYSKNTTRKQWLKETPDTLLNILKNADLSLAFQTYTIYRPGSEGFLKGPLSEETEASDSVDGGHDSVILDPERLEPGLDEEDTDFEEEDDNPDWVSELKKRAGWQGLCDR
Protocol: as §1, §2

PKD3 = target: T3, PKD3 (Homo sapiens, UniProt O94806); design: endogenous in cells; host or cells: L-363 (treated with MG132 for three hours before harvest)
T3 sequence (O94806 1-890): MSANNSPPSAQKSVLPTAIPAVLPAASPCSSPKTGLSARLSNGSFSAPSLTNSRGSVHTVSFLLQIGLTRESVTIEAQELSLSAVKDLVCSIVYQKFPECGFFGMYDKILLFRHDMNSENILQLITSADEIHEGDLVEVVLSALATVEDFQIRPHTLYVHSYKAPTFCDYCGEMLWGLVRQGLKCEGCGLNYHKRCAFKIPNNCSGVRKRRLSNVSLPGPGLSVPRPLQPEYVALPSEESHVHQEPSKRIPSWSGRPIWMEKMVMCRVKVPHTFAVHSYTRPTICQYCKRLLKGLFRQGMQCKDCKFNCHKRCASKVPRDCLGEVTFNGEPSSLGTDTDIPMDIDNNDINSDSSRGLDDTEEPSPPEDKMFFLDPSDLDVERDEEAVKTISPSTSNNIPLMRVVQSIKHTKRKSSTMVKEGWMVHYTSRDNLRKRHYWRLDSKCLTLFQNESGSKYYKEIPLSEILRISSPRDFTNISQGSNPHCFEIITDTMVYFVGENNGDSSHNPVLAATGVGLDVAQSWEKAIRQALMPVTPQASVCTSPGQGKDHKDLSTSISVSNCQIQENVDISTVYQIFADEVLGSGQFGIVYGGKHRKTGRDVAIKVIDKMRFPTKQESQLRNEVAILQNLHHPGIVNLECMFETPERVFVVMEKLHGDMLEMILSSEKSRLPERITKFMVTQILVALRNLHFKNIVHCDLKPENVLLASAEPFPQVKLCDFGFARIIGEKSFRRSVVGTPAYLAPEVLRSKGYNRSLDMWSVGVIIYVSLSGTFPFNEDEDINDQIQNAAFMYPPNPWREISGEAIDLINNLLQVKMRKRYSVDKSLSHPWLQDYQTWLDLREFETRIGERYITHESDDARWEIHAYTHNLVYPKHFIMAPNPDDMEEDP
Protocol: as §1, §2

- inhibition at 10 µM (NEK3): 96.8%
- inhibition at 10 µM (PKD3): 98.1%
SMILES: CS(=O)(=O)Nc1ccccc1Nc1nc(Nc2cccc(OCCN)c2)ncc1Cl [CZC31326, N-(2-(2-(3-(2-aminoethoxy)phenylamino)-5-chloropyrimidin-4-ylamino)phenyl)methanesulfonamide]
- inhibition at 10 µM (NEK9): 92.4%
